Patent US11535632B2, “Solid forms of an S1P-receptor modulator” (ESCAPE Bio, Inc., priority 2019, dated 2022)
Where two headings read alike, the source gives them in different places. Values belong to the compound of their own block, whether it stands above or below them.

Columns and labels:
Format in all cases: physicochemical
[1] = Room temperature equilibrium solubility in aqueous suspensions; conditions: listed as Compound 1, Form A; for Total drug in solution: room temperature equilibrium, HPLC of supernatant
[2] = Hygroscopicity evaluation by DVS at 25° C.
Protocol: Hygroscopicity of Compound 1, Form A and Compound 1, Form B was evaluated by DVS at 25° C.

[3] = Solid state stability study
From the text: The two lots of Compound 1 were characterized by HPLC, PLM, XRPD, DSC, TGA, and KF. […] According to the stability study at different conditions, the two forms of compound were practically stable at different humidity for at least 4 weeks, with no XRPD pattern change and no growth of impurities were found.

[4] = Competitive slurries of Form B and C in process relevant solvents; conditions: 90° C. in DMSO
Protocol: Determination of the relative stabilities of Form B and Form C was undertaken to identify which material was more thermodynamically stable in process relevant solvents. As a suspected solvate was isolated from experiments where DMAC was used as a solvent, only DMSO and acetic acid were determined to be appropriate process solvents. Combinations of these solvents with relevant antisolvents were therefore selected for the competitive slurry experiments.
Compound 1 (from Example 2) was dispensed into HPLC vials. To these, 1 ml of selected solvents was subsequently added to give a suspension. Materials were slurried for 72 hours at 90° C., 50° C. or 25° C. with 500 rpm stirring. Material was subsequently isolated by centrifugation and analyzed by XRPD.

[5] = Solubility and metastable zone width by Crystal 16; conditions: damp material isolated from DMAC, dried
Protocol: A Crystal 16 crystallization system (Technobis, NL) was used to determine the solubility and metastable zone of the material as a function of temperature. Slurries of the API, in different overall concentrations, were prepared by adding a known amount of solid to a known amount of chilled solvent (between 0.5 and 1.5 ml) and stirred at 350 rpm using a magnetic bar. The saturation temperature was measured through cycles of heating and cooling from 20 to 90° C. at 0.5° C./min.
Upon increasing the temperature, the solid completely dissolved and the suspension became a clear solution such that the light transmission reached its maximum value. This temperature was assigned as the clear point, which was assumed to coincide with the saturation temperature. Then, by cooling the solution at a rate of 0.5° C./min, the temperature at which particles first formed was detected by a decrease in the light transmission. This was assigned as the cloud point. The points were fitted by a Van′t Hoff equation and the difference between the cloud and the clear points defined the metastable zone width (MSZW) of the system. The instrument control software was Crystallization Systems and the data were analyzed using Crystal Clear and Microsoft Excel.
The solubility of compound 1 (various masses) in DMAC and DMSO (1 ml) was analyzed on the Crystal 16 (between 25-90° C. for DMSO and 0-90° C. for DMAC). A heating/cooling rate of 0.5° C./min and a stirring rate of 300 rpm was used for all samples. The resulting turbidity/temperature plots were analyzed to obtain solubility curves and determine the metastable zone width. Any precipitated solids were isolated by filtration and analyzed by XRPD.

- Total drug in solution ([1]; 0.2% HPMC aqueous suspension): 1.3 µg/mL
- pH ([1]; 0.2% HPMC aqueous suspension): 7.2
- Total drug in solution ([1]; 0.25% SLS aqueous suspension): 23.7 µg/mL
- pH ([1]; 0.25% SLS aqueous suspension): 6.9
- Total drug in solution ([1]; 20% HP-BCD aqueous suspension): 446.5 µg/mL
- pH ([1]; 20% HP-BCD aqueous suspension): 5.7
- XRPD after DVS test [2]: No form change but crystallinity
- DVS Desorp. (%) ([2]; 0% RH, 1st Desorp.): 0.00%
- DVS Sorp. (%) ([2]; 0% RH, 1st Sorp.): 0.00%
- DVS Desorp. (%) ([2]; 0% RH, 2nd Desorp.): 0.00%
- DVS Sorp. (%) ([2]; 0% RH, 2nd Sorp.): 0.00%
- DVS Desorp. (%) ([2]; 10% RH, 1st Desorp.): 0.01%
- DVS Sorp. (%) ([2]; 10% RH, 1st Sorp.): 0.00%
- DVS Desorp. (%) ([2]; 10% RH, 2nd Desorp.): 0.01%
- DVS Sorp. (%) ([2]; 10% RH, 2nd Sorp.): 0.00%
- DVS Desorp. (%) ([2]; 20% RH, 1st Desorp.): 0.01%
- DVS Sorp. (%) ([2]; 20% RH, 1st Sorp.): −0.01%
- DVS Desorp. (%) ([2]; 20% RH, 2nd Desorp.): 0.01%
- DVS Sorp. (%) ([2]; 20% RH, 2nd Sorp.): 0.00%
- DVS Desorp. (%) ([2]; 30% RH, 1st Desorp.): 0.02%
- DVS Sorp. (%) ([2]; 30% RH, 1st Sorp.): 0.00%
- DVS Desorp. (%) ([2]; 30% RH, 2nd Desorp.): 0.02%
- DVS Sorp. (%) ([2]; 30% RH, 2nd Sorp.): 0.01%
- DVS Desorp. (%) ([2]; 40% RH, 1st Desorp.): 0.02%
- DVS Sorp. (%) ([2]; 40% RH, 1st Sorp.): 0.00%
- DVS Desorp. (%) ([2]; 40% RH, 2nd Desorp.): 0.02%
- DVS Sorp. (%) ([2]; 40% RH, 2nd Sorp.): 0.01%
- DVS Sorp. (%) ([2]; 50% RH, 1st Sorp.): 0.01%
- DVS Desorp. (%) ([2]; 50% RH, 2nd Desorp.): 0.03%
- DVS Sorp. (%) ([2]; 60% RH, 1st Sorp.): 0.01%
- DVS Desorp. (%) ([2]; 60% RH, 2nd Desorp.): 0.03%
- DVS Sorp. (%) ([2]; 70% RH, 1st Sorp.): 0.02%
- DVS Desorp. (%) ([2]; 70% RH, 2nd Desorp.): 0.04%
- DVS Sorp. (%) ([2]; 80% RH, 1st Sorp.): 0.02%
- DVS Desorp. (%) ([2]; 80% RH, 2nd Desorp.): 0.04%
- DVS Sorp. (%) ([2]; 90% RH, 1st Sorp.): 0.03%
- DVS Desorp. (%) ([2]; 90% RH, 2nd Desorp.): 0.04%
- DVS Sorp. (%) ([2]; 95% RH, 1st Sorp.): 0.01%
- DVS Desorp. (%) ([2]; 95% RH, 2nd Desorp.): 0.01%
- Hygroscopicity based on DVS results ([2]; listed as Compound 1, Form A): non-hygroscopic
- Crystallinity (XRPD & PLM) ([3]; 4 weeks, 25° C./60% RH): Crystalline
- Purity ([3]; 4 weeks, 25° C./60% RH): 99.48%
- Weight loss (TGA) (~120° C.) ([3]; 4 weeks, 25° C./60% RH): 0.981%
- Crystallinity (XRPD & PLM) ([3]; 4 weeks, 40° C./75% RH): Crystalline
- Purity ([3]; 4 weeks, 40° C./75% RH): 99.46%
- Weight loss (TGA) (~120° C.) ([3]; 4 weeks, 40° C./75% RH): 0.884%
- Crystallinity (XRPD & PLM) ([3]; 6 weeks, 25° C./60% RH): Crystalline
- Purity ([3]; 6 weeks, 25° C./60% RH): 99.54%
- Water content ([3]; 6 weeks, 25° C./60% RH): 0.784%
- Weight loss (TGA) (~120° C.) ([3]; 6 weeks, 25° C./60% RH): 0.831%
- Crystallinity (XRPD & PLM) ([3]; 6 weeks, 40° C./75% RH): Crystalline
- Purity ([3]; 6 weeks, 40° C./75% RH): 99.47%
- Water content ([3]; 6 weeks, 40° C./75% RH): 0.547%
- Weight loss (TGA) (~120° C.) ([3]; 6 weeks, 40° C./75% RH): 0.739%
- Crystallinity (XRPD & PLM) ([3]; 8 weeks, 25° C./60% RH): Crystalline
- Purity ([3]; 8 weeks, 25° C./60% RH): 99.51%
- Water content ([3]; 8 weeks, 25° C./60% RH): 0.559%
- Weight loss (TGA) (~120° C.) ([3]; 8 weeks, 25° C./60% RH): 0.946%
- Crystallinity (XRPD & PLM) ([3]; 8 weeks, 40° C./75% RH): Crystalline
- Purity ([3]; 8 weeks, 40° C./75% RH): 99.53%
- Water content ([3]; 8 weeks, 40° C./75% RH): 0.608%
- Weight loss (TGA) (~120° C.) ([3]; 8 weeks, 40° C./75% RH): 0.801%
- Crystallinity (XRPD & PLM) ([3]; Initial): Crystalline
- Purity ([3]; Initial): 99.46%
- Water content ([3]; Initial): 0.513%
- Weight loss (TGA) (~120° C.) ([3]; Initial): 0.722%
- Relative thermodynamic stability [4]: most thermodynamically stable polymorph
Structure (SMILES): O=C(O)[C@H]1C[C@@H](N2CCc3oc(-c4ccc(OCc5ccc(Cl)cc5)cc4)nc3C2)C1 [Form A, (1s,3s)-3-(2-(4-((4-chlorobenzyl)oxy)phenyl)-6,7-dihydrooxazolo[4,5-c]pyridin-5(4H)-yl)cyclobutane-1-carboxylic acid]
- XRPD after DVS test ([2]; listed as Compound 1, Form A): no form change but crystallinity decreased and peaks became broad

- Form change upon drying (XRPD) [5]: converted to Form C
Structure (SMILES): O=C(O)[C@H]1C[C@@H](N2CCc3oc(-c4ccc(OCc5ccc(Cl)cc5)cc4)nc3C2)C1 [Form D, (1s,3s)-3-(2-(4-((4-chlorobenzyl)oxy)phenyl)-6,7-dihydrooxazolo[4,5-c]pyridin-5(4H)-yl)cyclobutane-1-carboxylic acid]
